These results are taken from PMC12288454, “Functional consequences of genetic variations in DgoR, a GntR/FadR family transcriptional repressor of D-galactonate metabolism in Escherichia coli” (Journal of Bacteriology, 2025).

For data set [1], the target named is T1, DgoR (BW WT DgoR) (Escherichia coli, UniProt P31460, A152E).
T1 construct: full length (229 aa), C-terminal 6XHis tag, expressed from Ptrc in pRC10 in E. coli BL21(DE3), Co-NTA purified; dimer
T1 sequence (P31460 1-229 A152E): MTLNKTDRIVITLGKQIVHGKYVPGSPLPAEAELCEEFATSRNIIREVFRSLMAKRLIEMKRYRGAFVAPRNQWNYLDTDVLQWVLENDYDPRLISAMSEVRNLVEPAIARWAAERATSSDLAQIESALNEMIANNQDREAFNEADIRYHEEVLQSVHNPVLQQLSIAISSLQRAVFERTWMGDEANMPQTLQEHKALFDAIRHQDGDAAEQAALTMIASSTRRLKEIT
Kind of data set: label-free microscale thermophoresis. It is filed as binding. (In MST a laser heats a spot of the sample, and binding alters the fluorescence response.)

In data set [2] the target is T2, DgoR (BW WT DgoR) (Escherichia coli, UniProt P31460, R71C).
T2 construct: full length (229 aa), C-terminal 6XHis tag, expressed from Ptrc in pRC10 in E. coli BL21(DE3), Co-NTA purified; dimer
T2 sequence (P31460 1-229 R71C): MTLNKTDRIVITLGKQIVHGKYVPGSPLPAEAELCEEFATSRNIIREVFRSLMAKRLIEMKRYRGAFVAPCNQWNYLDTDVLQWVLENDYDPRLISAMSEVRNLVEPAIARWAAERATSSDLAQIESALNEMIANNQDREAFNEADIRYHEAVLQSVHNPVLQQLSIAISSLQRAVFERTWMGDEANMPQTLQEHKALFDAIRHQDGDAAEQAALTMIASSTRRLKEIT
Briefly: label-free microscale thermophoresis. It is filed as binding.

In data set [3] the target is T3, DgoR (BW WT DgoR) (Escherichia coli, UniProt P31460).
T3 construct: full length (229 aa), C-terminal 6XHis tag, expressed from Ptrc in pRC10 in E. coli BL21(DE3), Co-NTA purified; dimer
T3 sequence (P31460 1-229): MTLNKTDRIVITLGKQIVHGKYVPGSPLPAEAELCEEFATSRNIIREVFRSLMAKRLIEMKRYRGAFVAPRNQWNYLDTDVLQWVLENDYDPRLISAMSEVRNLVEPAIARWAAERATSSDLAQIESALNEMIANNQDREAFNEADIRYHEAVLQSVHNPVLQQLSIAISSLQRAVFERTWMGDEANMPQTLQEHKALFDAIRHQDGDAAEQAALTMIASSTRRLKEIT
Briefly: label-free microscale thermophoresis. Format: binding.

The target in data set [4] is T4, DgoR WT (Escherichia coli BW, UniProt P31460 1-229).
T4 sequence: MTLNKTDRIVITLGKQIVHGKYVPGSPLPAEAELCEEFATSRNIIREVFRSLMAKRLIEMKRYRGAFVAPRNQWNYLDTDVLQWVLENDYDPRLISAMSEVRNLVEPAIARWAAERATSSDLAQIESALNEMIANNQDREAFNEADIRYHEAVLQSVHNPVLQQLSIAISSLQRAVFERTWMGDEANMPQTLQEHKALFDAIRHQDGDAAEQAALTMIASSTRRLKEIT
Briefly: EMSA; no effector; apparent Kd, Hill fit; 10 nM DNA, 50 mM Tris pH 8.5, 10 mM MgCl2, 265 mM NaCl, 1 mM PMSF, 12% glycerol, 2 mM DTT, 1 ug herring sperm DNA per 20 uL, 27 C 30 min; effector pre-incubation 37 C 20 min; 8% native PAGE 0.5x TBE. Particulars: protein: recombinant; tags: C-terminal 6xHis; chain copies: 2; label: 5'-Cy5 on strand 1; blunt. (In EMSA bound probe runs differently from free probe, usually more slowly.)

Consider `O=C(O)[C@H](O)[C@@H](O)[C@@H](O)[C@H](O)CO` [D-galactonate], for which the Kd in data set [1] was found to be 11.3 ± 0.2 µM; in data set [2] it was 32.9 ± 1.2 µM; in data set [3], 10.3 ± 0.3 µM.

B1: dgo promoter probe GA149/GA150 (dsDNA)
DNA 1: GTGATCTAAATTGTAGTACAACAATATAAGTTTGTACTACATTACACGCACG
DNA 2: CGTGCGTGTAATGTAGTACAAACTTATATTGTTGTACTACAATTTAGATCAC
As to B1, the Kd in data set [4] stood at 0.494 ± 0.019 µM.
